Results taken from patent US20110124523A1, “High Throughput Method for Detecting Apoptosis of Embryonic Stages of Metazoan Helminthic Parasites” (INSTITUTE OF LIFE SCIENCES, priority 2009, published 2011).
Values joined by “and” are separate entries in the source; they are usually repeats but may differ in a detail not shown here. Equal entries are not always repeated.

Legend:
[1] = system: embryonic stages of S. digitata; experiment: Presence of cytochrome-c in the cytoplasm, anti cytochrome c-FITC staining; assay type: cell-based, Setaria digitata; details: 24 hr
Protocol: (§1) Adult female filarial worms Setaria digitata were collected from the peritoneum of cattle, slaughtered at a nearby abattoir in sterile Hanks Balanced Salt Solution (HBSS) medium (Sigma H 2387-1L) and transported to the laboratory in a sterile container. The medium containing 1% glucose (Sigma G 7528), Penicillin 100 units/ml, Streptomycin 100 μg/ml (Sigma P 4333). And Amphotericin-B 0.25 μg/ml (Sigma A 2942) was buffered with NaHCO3 (Sigma S 5761). About 5 to 7 worms were taken in a petridish, washed three times in medium, dissected into small pieces in 10 ml of medium under sterile conditions and incubated at 37° C. for 30 minutes to allow the release of embryonic stages (eggs and microfilariae) into the medium. The embryonic stages were harvested into sterile 15 ml. centrifuge tubes and washed three times by centrifuging at 300 g for 10 minutes each with medium and the final pellet was suspended in 1 ml. of RPMI-1640 medium (Sigma R 8005) supplemented with 10% FBS (Sigma F 2442) The number of embryonic stages of S. digitata in the above preparation were counted using light microscope, and the suspension was taken in RPMI-1640 medium containing 10% FBS at 1×10^5 embryonic stages/ml. One ml. each was dispensed into individual wells of a 24 well tissue culture plate. One set of wells was taken as untreated control containing only medium with 10% FBS. […] Motility of the Mf was scored under an inverted microscope. After appropriate treatment and incubation, each set of the cultured embryonic stages of S. digitata were harvested from the 24 well tissue culture plate separately in 15 ml. sterile centrifuge tubes, washed with PBS twice and stained as per requirement following manufacturer's instructions as described below. This was followed by two times washing with PBS and final suspension of the stained embryonic stages was taken in 0.5 ml of sheath fluid (BD Biosciences 342003) before their acquisition in the flow cytometer (BD FACS Calibur, Becten and Dickinson, USA). Analysis was performed on 10,000-acquired events depicted as Dot Plots and Histogram Plots using Cellquest Pro soft ware. All plots were representative of at least 3 experiments. […] After in vitro culture for 24 hours with apoptosis inducing reagents the embryonic stages were harvested in 15 ml. sterile centrifuge tubes and fixed for 60 minutes at 0° C. in 1% paraformaldehyde (Sigma P 6148) in PBS. The suspension was washed first with PBS and then with 1× permeabilisation buffer (eBioscience 00-8333-56) and finally resuspended in 100 μl of 1× permeabilisation buffer at 1×10^5 embryonic stages per ml. This suspension was then incubated for 45 minutes with 20 μl of anti cytochrome c-FITC (eBioscience 11-6601-82). This was followed by washing with PBS twice and analysis by Flow cytometer.

[2] = system: embryonic stages of S. digitata; experiment: Intra cellular activation of caspase-3 like cysteine proteinases, anti active caspase-3-PE staining; assay type: cell-based, Setaria digitata; details: 24 hr
Protocol: as §1, with “active caspase-3-PE (BD Biosciences 559762).” for “cytochrome c-FITC (eBioscience 11-6601-82).”

SMILES | GMI (Geometric Mean Intensity) of Fluorescence, Cyt-c Staining ([1]; Eggs, 10 μM) | GMI (Geometric Mean Intensity) of Fluorescence, Cyt-c Staining ([1]; Microfilariae, 10 μM) | GMI (Geometric Mean Intensity) of Fluorescence, Caspase-3 Activation ([2]; Eggs, 10 μM) | GMI (Geometric Mean Intensity) of Fluorescence, Caspase-3 Activation ([2]; Microfilariae, 10 μM) | GMI (Geometric Mean Intensity) of Fluorescence, Cyt-c Staining ([1]; Eggs, 1 μM) | GMI (Geometric Mean Intensity) of Fluorescence, Cyt-c Staining ([1]; Microfilariae, 1 μM) | GMI (Geometric Mean Intensity) of Fluorescence, Caspase-3 Activation ([2]; Eggs, 1 μM) | GMI (Geometric Mean Intensity) of Fluorescence, Caspase-3 Activation ([2]; Microfilariae, 1 μM)
OO [H2O2] | 62.37 and 67.72 and 65.39 | 7.53 and 9.23 and 8.14 | 56.95 and 61.37 and 60.20 | 7.57 and 9.69 and 12.34 |  |  |  | 
CC1=CC(=O)c2c(O)cccc2C1=O [Plumbagin] | 70.29 and 76.25 and 71.32 | 18.69 and 20.32 and 17.56 | 82.35 and 87.32 and 80.16 | 10.57 and 11.22 and 14.16 |  |  |  | 
CN[C@@H]1C[C@H]2O[C@@](C)([C@@H]1OC)n1c3ccccc3c3c4c(c5c6ccccc6n2c5c31)C(=O)NC4 [Staurosporine] |  |  |  |  | 54.33 and 61.66 and 57.27 | 6.02 and 4.20 | 50.13 and 54.95 and 50.97 | 6.20 and 6.72
